Assay results as given in patent US9718834B2, “Processes and intermediates for making a JAK inhibitor” (Incyte Corporation, priority 2011, dated 2017).

Biological target: T1, human JAK1 (a.a. 837-1142) (Homo sapiens, UniProt P23458)
T1 construct: human JAK1 (a.a. 837-1142); His tag (N); made in house; host or cells: insect cells (baculovirus)
Experiment: In vitro JAK kinase assay (HTRF, phosphorylation of biotinylated peptide), JAK1
Format: biochemical
Settings: measured at 1 mM ATP
Procedure: The compound of Formula I herein was tested for inhibitory activity of JAK targets according to the following in vitro assay described in Park et al., Analytical Biochemistry 1999, 269, 94-104. The catalytic domains of human JAK1 (a.a. 837-1142) and JAK2 (a.a. 828-1132) with an N-terminal His tag were expressed using baculovirus in insect cells and purified. The catalytic activity of JAK1 and JAK2 was assayed by measuring the phosphorylation of a biotinylated peptide. The phosphorylated peptide was detected by homogenous time resolved fluorescence (HTRF). IC50s of compounds were measured for each kinase in the 40 microL reactions that contain the enzyme, ATP and 500 nM peptide in 50 mM Tris (pH 7.8) buffer with 100 mM NaCl, 5 mM DTT, and 0.1 mg/mL (0.01%) BSA. For the 1 mM IC50 measurements, ATP concentration in the reactions was 1 mM. Reactions were carried out at room temperature for 1 hr and then stopped with 20 μL 45 mM EDTA, 300 nM SA-APC, 6 nM Eu-Py20 in assay buffer (Perkin Elmer, Boston, Mass.). Binding to the Europium labeled antibody took place for 40 minutes and HTRF signal was measured on a Fusion plate reader (Perkin Elmer, Boston, Mass.).

T1 sequence (P23458 849-1154): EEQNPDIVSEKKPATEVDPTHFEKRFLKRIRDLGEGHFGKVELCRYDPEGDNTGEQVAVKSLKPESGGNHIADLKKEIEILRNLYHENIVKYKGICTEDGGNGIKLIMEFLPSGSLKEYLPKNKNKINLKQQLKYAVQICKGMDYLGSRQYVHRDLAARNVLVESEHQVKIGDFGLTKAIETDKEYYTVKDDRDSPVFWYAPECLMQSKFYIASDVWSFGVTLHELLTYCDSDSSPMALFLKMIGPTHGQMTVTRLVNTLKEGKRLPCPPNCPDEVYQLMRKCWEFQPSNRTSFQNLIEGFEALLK

Question: How did the IC50 turn out when N#CCC1(n2cc(-c3ncnc4[nH]ccc34)cn2)CN(C2CCN(C(=O)c3ccnc(C(F)(F)F)c3F)CC2)C1 [Example 1, {1-{1-[3-fluoro-2-(trifluoromethyl)isonicotinoyl]piperidin-4-yl}-3-[4-(7H-pyrrolo[2,3-d]pyrimidin-4-yl)-1H-pyrazol-1-yl]azetidin-3-yl}acetonitrile] was run?
Answer: ≤ 5 nM
